Data from ChEMBL document CHEMBL2321717, “Synthesis of novel estrogen receptor antagonists using metal-catalyzed coupling reactions and characterization of their biological activity” (J Med Chem, 2013).
Activity calls are given as the source filed them. The calls are words filed in the database; no cut-off is given here.

Assays:
Estrogen receptor = biological target: T1, Estrogen receptor (Homo sapiens, UniProt P03372)
T1 sequence (P03372 whole entry): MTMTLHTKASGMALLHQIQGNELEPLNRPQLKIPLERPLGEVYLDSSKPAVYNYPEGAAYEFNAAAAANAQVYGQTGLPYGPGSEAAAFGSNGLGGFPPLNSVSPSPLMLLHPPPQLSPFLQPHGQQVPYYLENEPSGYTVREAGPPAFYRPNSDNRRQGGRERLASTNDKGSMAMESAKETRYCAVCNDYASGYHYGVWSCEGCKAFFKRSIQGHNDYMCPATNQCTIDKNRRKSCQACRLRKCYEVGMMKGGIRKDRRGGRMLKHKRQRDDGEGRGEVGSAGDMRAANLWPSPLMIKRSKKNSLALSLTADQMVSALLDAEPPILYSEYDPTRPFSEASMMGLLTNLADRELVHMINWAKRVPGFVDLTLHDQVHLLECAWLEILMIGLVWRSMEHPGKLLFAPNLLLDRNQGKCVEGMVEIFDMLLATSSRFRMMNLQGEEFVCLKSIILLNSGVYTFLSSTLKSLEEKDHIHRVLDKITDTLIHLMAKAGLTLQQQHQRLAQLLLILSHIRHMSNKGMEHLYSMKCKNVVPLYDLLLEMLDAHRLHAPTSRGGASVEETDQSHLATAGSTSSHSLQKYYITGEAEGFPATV

[1] = biological target: Estrogen receptor alpha (Homo sapiens) (UniProt P03372); experiment: Agonist activity at ERalpha receptor in human MCF7 cells assessed as stimulation of cell proliferation after 6 days by crystal violet staining method
[2] = biological target: Estrogen receptor alpha (Homo sapiens) (UniProt P03372); experiment: Agonist activity at ERalpha receptor in human HeLa cells assessed as activation of ERalpha-based transcription at 100 nM after 20 to 24 hrs by luciferase reporter gene assay
[3] = biological target: Estrogen receptor alpha (Homo sapiens) (UniProt P03372); experiment: Agonist activity at LBD of ERalpha receptor in human HeLa cells assessed as induction of receptor-SRC-1 interaction at 100 nM after 20 to 24 hrs by luciferase reporter gene assay
Estrogen receptor beta = Estrogen receptor beta (Homo sapiens, UniProt Q92731)
Sequence of Estrogen receptor beta (Q92731 whole entry): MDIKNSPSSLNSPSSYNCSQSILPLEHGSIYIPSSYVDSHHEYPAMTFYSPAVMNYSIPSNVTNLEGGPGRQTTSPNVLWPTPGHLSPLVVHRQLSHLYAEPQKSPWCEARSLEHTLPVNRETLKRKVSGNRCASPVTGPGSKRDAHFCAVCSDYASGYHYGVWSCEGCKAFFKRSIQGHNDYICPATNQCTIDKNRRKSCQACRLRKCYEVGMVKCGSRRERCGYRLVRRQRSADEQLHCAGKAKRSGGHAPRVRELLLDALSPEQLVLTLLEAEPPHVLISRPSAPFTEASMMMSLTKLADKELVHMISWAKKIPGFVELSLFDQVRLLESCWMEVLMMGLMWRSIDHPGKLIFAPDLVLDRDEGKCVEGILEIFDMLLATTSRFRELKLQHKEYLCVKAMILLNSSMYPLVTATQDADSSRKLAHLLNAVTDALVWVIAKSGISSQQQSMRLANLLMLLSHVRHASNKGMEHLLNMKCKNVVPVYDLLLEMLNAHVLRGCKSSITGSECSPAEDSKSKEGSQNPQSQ

[4] = biological target: Estrogen receptor alpha (Homo sapiens) (UniProt P03372); experiment: Antagonist activity at ERalpha receptor in human HeLa cells assessed as inhibition of E2-induced response after 20 to 24 hrs by luciferase reporter gene assay
[5] = biological target: Estrogen receptor alpha (Homo sapiens) (UniProt P03372); experiment: Agonist activity at ERalpha receptor in human HepG2 cells assessed as activation of ERalpha-based transcription at 100 nM after 20 to 24 hrs by luciferase reporter gene assay
MDA-MB-231 [6] = experiment: Inhibition of cell proliferation in human ERalpha receptor negative MDA-MB-231 cells after 6 days by crystal violet staining method; format: functional, cell-based
[7] = biological target: Estrogen receptor alpha (Homo sapiens) (UniProt P03372); experiment: Partial agonist activity at ERalpha receptor in human HeLa cells assessed as activation of ERalpha-based transcription at 100 nM after 20 to 24 hrs by luciferase reporter gene assay
MDA-MB-231 [8] = experiment: Stimulation of cell proliferation in human ERalpha receptor negative MDA-MB-231 cells after 6 days by crystal violet staining method; format: functional, cell-based

SMILES | IC50 (Estrogen receptor) [nM] | Activity [1] | Activity [2] | Activity [3] | IC50 (Estrogen receptor beta) [nM] | Activity [4] | Activity [5] [%] | Activity (MDA-MB-231 [6]) | Activity [7] | Activity (MDA-MB-231 [8])
C[C@]12CC[C@@H]3c4ccc(O)cc4C[C@@H](CCCCC#Cc4ccc(CN5CCCCC5)cc4)[C@H]3[C@@H]1CC[C@@H]2O | 638 | Active | Active | Active |  |  |  |  |  | 
CCOC(=O)C(Cc1ccc(C#CCCCC[C@@H]2Cc3cc(O)ccc3[C@H]3CC[C@]4(C)[C@@H](O)CC[C@H]4[C@H]23)cc1)C(=O)OCC | 126 | Active | Active | Active | 151 |  |  |  |  | 
C[C@]12CC[C@@H]3c4ccc(O)cc4C[C@@H](CCCCC#Cc4ccc(-n5cccc5)cc4)[C@H]3[C@@H]1CC[C@@H]2O | 28.3 | Active | Active | Active |  |  |  |  |  | 
C[C@]12CC[C@@H]3c4ccc(O)cc4C[C@@H](CCCCc4cn(CC5COc6ccccc6O5)nn4)[C@H]3[C@@H]1CC[C@@H]2O (some centres not stated) | 24.4 |  |  |  | 41.2 | Active | 50 |  |  | 
C[C@]12CC[C@@H]3c4ccc(O)cc4C[C@@H](CCCCC#Cc4ccc5ccccc5c4)[C@H]3[C@@H]1CC[C@@H]2O | 176 | Active | Active | Active |  |  |  |  |  | 
CCOC(=O)CC(=O)c1ccc(C#CCCCC[C@@H]2Cc3cc(O)ccc3[C@H]3CC[C@]4(C)[C@@H](O)CC[C@H]4[C@H]23)cc1 | 96.5 | Active | Active | Active | 185 |  |  |  |  | 
C[C@]12CC[C@@H]3c4ccc(O)cc4C[C@@H](CCCCC#Cc4ccc(-c5ccno5)cc4)[C@H]3[C@@H]1CC[C@@H]2O |  |  | Active |  |  |  | 50 | inactive | Active | inactive
CC(C)(C)OC(=O)N1CCN(c2ccc(C#CCCCC[C@@H]3Cc4cc(O)ccc4[C@H]4CC[C@]5(C)[C@@H](O)CC[C@H]5[C@H]34)cc2)CC1 | 567 |  | Active |  | 436 |  |  | inactive | Active | inactive
